# In publication PMC11336141:
# Bridge positions count the residues as written; N and C are the ends. Square brackets hold non-standard residues; d marks the D form. Peptide text beside a SMILES is read from it.
# Legend:
# [1] = molecular target: T1, human SSTR2 (Gi3) (Homo sapiens, UniProt P30874); assay: G protein activation (BRET dissociation) assay, Gi3 at hSSTR2; format: cell-based;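 on Emax ± S.E.M.: percent of the maximal response to the reference somatostatin agonist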
# T1 construct: host or cells: HEK293T cells
# [2] = system: Dr-sstr2a (GoA); assay: G protein dissociation assay, GoA at Dr-sstr2a; format: cell-based, zebrafish (Danio rerio); conditions: HEK293T cells
# Description: 3xHA-tagged human SSTR2 construct was obtained from cDNA.org (cDNA resource center, Bloomsburg PA, US). […] Kirill Martemyanov (University of Florida, US). Tango constructs for human SSTR1-5 were kind gifts from Prof. Bryan Roth (University of North Carolina, Chapel Hill, US) (Addgene kit # 1000000068). Tango constructs for fish Dr-sstr2a (sequence accession number: XP_005170178.1) and Dr-sstr2b (sequence accession number: XP_017210358.1) were custom-synthesized by Twist Biosciences using the Tango construct template as described in Kroeze et al., 2015[28]. 3xHA-tagged Dr-sstr2a and 3xHA tagged Dr-sstr2b constructs were inserted into pcDNA3.1 backbone. All DNA constructs were sequenced and confirmed prior to use.
# Error bars represent means ± S.E.M. of n = 3 in technical duplicates.
# [3] = molecular target: human SSTR2 (Homo sapiens, UniProt P30874); assay: PRESTO-Tango β-arrestin recruitment assay, hSSTR2
# human SSTR2, sequence (P30874 whole entry): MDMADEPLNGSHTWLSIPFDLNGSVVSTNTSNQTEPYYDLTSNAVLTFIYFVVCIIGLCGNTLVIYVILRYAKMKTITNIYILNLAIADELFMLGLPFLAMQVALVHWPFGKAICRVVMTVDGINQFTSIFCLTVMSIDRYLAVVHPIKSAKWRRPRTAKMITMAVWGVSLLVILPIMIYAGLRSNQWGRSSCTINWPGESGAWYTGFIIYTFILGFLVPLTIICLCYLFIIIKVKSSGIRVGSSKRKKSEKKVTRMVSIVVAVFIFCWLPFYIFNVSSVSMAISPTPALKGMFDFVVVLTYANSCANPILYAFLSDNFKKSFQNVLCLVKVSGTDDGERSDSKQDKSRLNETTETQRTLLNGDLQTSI
# T1 sequence (P30874 whole entry): as above
structure (smiles),measurement,setting,value
CC(C)C[C@H](N)C(=O)N[C@@H](Cc1ccccc1)C(=O)N[C@H]1CSSC[C@@H](C(=O)N[C@@H](Cc2c[nH]c3ccccc23)C(=O)O)NC(=O)[C@H](CO)NC(=O)[C@H](CCCCN)NC(=O)[C@@H](Cc2c[nH]c3ccccc23)NC(=O)[C@H](Cc2ccccc2)NC1=O [pG1] (H-LFCF[dW]KSCW-OH; disulfide 3-8),Emax,[1],75.2 ± 7.38%
same,Hill Slope,"[1]; Table S2, Gαi3",0.70 ± 0.18
same,Span ± S.E.M.,"[1]; Table S2, Gαi3",75.57 ± 8.97
same,GoA dissociation at Dr-sstr2a in words,[2],only induced GoA dissociation at the Dr-sstr2b but not the Dr-sstr2a
same,EC50,[3],3.55 nM
same,activation of hSSTR2 in words,"[3]; PRESTO-Tango, HTLA cells",potent and selective SSTR2 full agonist
same,Hill Slope,[3]; Table S1,0.50 ± 0.06
same,Span ± S.E.M.,[3]; Table S1,106.03 ± 6.98
same,Emax,"[3]; read-out: Emax ± S.E.M., Table S1, % of maximal response relative to SS-14",105 ± 3.01%
